Measurements taken from BindingDB's records for doi:10.1016/j.bmcl.2014.05.036 (AstraZeneca, 2014).

Tests used:
[1] = Inhibition of human BCL-2 overexpressed in mouse FDC-P1 cells assessed as cell viability after 24 hrs by Cell Titer Glo assay
[2] = Inhibition of human BCL-xL overexpressed in mouse FDC-P1 cells assessed as cell viability after 24 hrs by Cell Titer Glo assay

Row | SMILES | IC50 [1] | IC50 [2]
1 | O=C(NS(=O)(=O)c1ccc(N[C@H](CCN2CCOCC2)CSc2ccccc2)c(S(=O)(=O)C(F)(F)F)c1)c1ccc(N2CCN(Cc3ccccc3-c3ccc(Cl)cc3)CC2)cc1 | 14 nM | 64 nM
2 | O=C(NS(=O)(=O)c1ccc(N[C@H](CCN2CCOCC2)CSc2ccccc2)c(S(=O)(=O)C(F)(F)F)c1)c1cnc(N2CCN(Cc3ccccc3-c3ccc(Cl)cc3)CC2)nc1 | 340 nM | 2090 nM
3 | O=C(NS(=O)(=O)c1ccc(N[C@H](CCN2CCOCC2)CSc2ccccc2)c(S(=O)(=O)C(F)(F)F)c1)c1ccc(N2CCC([S@@+]([O-])c3ccccc3-c3ccc(Cl)cc3)CC2)cc1 | 434 nM | 1720 nM
4 | N#CC1(Cc2ccccc2-c2ccc(Cl)cc2)CCN(c2ccc(C(=O)NS(=O)(=O)c3ccc(N[C@H](CCN4CCOCC4)CSc4ccccc4)c(S(=O)(=O)C(F)(F)F)c3)cc2)CC1 | 545 nM | 2820 nM
5 | CN(C)C(=O)COc1cccc(-c2ccc(Cl)cc2)c1CN1CCN(c2ccc(C(=O)NS(=O)(=O)c3ccc(N[C@H](CCN4CCOCC4)CSc4ccccc4)c(S(=O)(=O)C(F)(F)F)c3)cc2)CC1 | 45 nM | 226 nM
6 | CN(C)C(=O)COc1ccc(-c2ccc(Cl)cc2)c(CN2CCN(c3ccc(C(=O)NS(=O)(=O)c4ccc(N[C@H](CCN5CCOCC5)CSc5ccccc5)c(S(=O)(=O)C(F)(F)F)c4)cc3)CC2)c1 | 187 nM | 2090 nM
7 | CN(C)CCOc1cccc(-c2ccc(Cl)cc2)c1CN1CCN(c2ccc(C(=O)NS(=O)(=O)c3ccc(N[C@H](CCN4CCOCC4)CSc4ccccc4)c(S(=O)(=O)C(F)(F)F)c3)cc2)CC1 | 4 nM | 33 nM
8 | CN(C)CCOc1ccc(-c2ccc(Cl)cc2)c(CN2CCN(c3ccc(C(=O)NS(=O)(=O)c4ccc(N[C@H](CCN5CCOCC5)CSc5ccccc5)c(S(=O)(=O)C(F)(F)F)c4)cc3)CC2)c1 | 22 nM | 138 nM
